Data: US20210355450A1, “CERVICAL CANCER ORGANOIDS” (Max-Planck-Gesellschaft zur Förderung der Wissenschaften …, priority 2018, published 2021)
“Also recorded” adds a separate entry of the source.

B1: RSPO1: Wnt agonist R-spondin 1, supplied as 25% conditioned medium (protein, UniProt Q2MKA7 21-263, looked up)
R-spondin-1: SRGIKGKRQRRISAEGSQACAKGCELCSEVNGCLKCSPKLFILLERNDIRQVGVCLPSCPPGYFDARNPDMNKCIKCKIEHCEACFSHNFCTKCKEGLYLHKGRCYPACPEGSSAANGTMECSSPAQCEMSEWSPWGPCSKKQQLCGFRRGSEERTRRVLHAPVGDHAACSDTKETRRCTVRRVPCPEGQKRRKGGQGRRENANRNLARKESKEAGAGSRRRKGQQQQQQQGTVGPLTSAGPA
modifications: conditioned medium
notes: Wnt agonist R-spondin 1, supplied as 25% conditioned medium

Columns and labels:
[1] = tested on: human ectocervical organoids; experiment: Human ectocervical organoid culture: formation, growth, differentiation; assay type: cell-based; conditions: for formation and expansion of squamous stratified organoids from single ectocervical stem cells: Wnt3a and RSPO1 together present in culture medium, human
Method: The medium consisted of ADF, 12 mM HEPES and 1% GlutaMax, supplemented with 1% B27, 1% N2, 0.5 μg/ml hydrocortisone (Sigma, #H0888-1G), 10 ng/ml human EGF (Invitrogen, #PHG0311), 100 ng/ml human noggin (Peprotech; #120-10C), 100 ng/ml human FGF-10 (Peprotech, #100-26-25), 1.25 mM N-acetyl-L-cysteine, 10 mM nicotinamide, 2 μM TGF-β R kinase Inhibitor IV, 10 μM ROCK inhibitor (Y-27632), 10 μM forskolin (Sigma, F6886) and 1% penicillin/streptomycin.
(§1) Cells isolated from tissue or the stem cells grown in 2D culture were mixed with 50 μl of ice cold Matrigel (BD, #356231) at a density of 20,000 cells, and the Matrigel droplet was placed in a pre-warmed 24-well plate and allowed to polymerize for 10 min at 37° C. The Matrigel droplet was then overlaid with 500 μl of pre-warmed human ecto- or endocervical medium. Cultures were kept at 37° C., 5% CO2 in a humidified incubator for 2-3 weeks and medium replaced every four days. For passaging the organoids, Matrigel was first dissolved by adding 1 ml of ice cold ADF and pipetting up and down 5 times. Organoids were collected in a 15 ml Falcon tube and a further 4 ml of ice cold ADF medium was added and organoids resuspended well to completely dissolve the Matrigel, followed by centrifugation at 300×g for 5 mins at 4° C. Medium was discarded and the ectocervical and mouse organoids were incubated with 1 ml of TrypLE Express for 30 min at 37° C. followed by mechanical fragmentation using a fire-polished glass Pasteur pipette by vigorous pipetting (8-10 times) to generate single cells. The single cells were then seeded at a 1:10 ratio back into Matrigel for expanding and culturing. Endocervical organoids were subjected to mechanical fragmentation as described above after centrifugation to generate fragments that were seeded back into Matrigel at 1:5 ratio. Matrigel was allowed to polymerize for 10 min at 37° C., overlaid with pre-warmed medium and cultured as described above.
(§2) Stem cells were counted and a defined number resuspended in 50 μl of Matrigel to generate organoids as described above. Between 2-3 weeks after plating images were taken of the whole well and the number and area of organoids formed were determined using ImageJ to calculate organoid forming efficiency.
Organoids were washed with cold PBS five times to remove Matrigel before fixing with 4% paraformaldehyde for 1 h at room temperature (RT) followed by washing with PBS twice. Organoids were then subjected to dehydration in an ascending ethanol series followed by isopropanol and acetone for 20 min each. The dehydrated organoids were paraffin embedded and 5 μm sections cut on a Microm HM 315 microtome. Mouse and human tissues were extensively washed with PBS and fixed using 4% PFA overnight at RT. Samples were subjected to dehydration in an ascending ethanol series followed by isopropanol and xylene (60 mins each) followed by paraffinization using a Leica TP1020 tissue processor. The tissue was embedded and 5 μm sections cut on a microtome. For immunostaining, paraffin sections were deparaffinized and rehydrated, followed by treatment with antigen retrieval solution (Dako, #S1699). Sections were blocked using blocking buffer (1% BSA and 2% FCS in PBS) for 1 h at RT. Primary antibodies were diluted in blocking buffer and incubated for 90 min at RT followed by five PSB washes before 1 h incubation with secondary antibodies diluted in blocking buffer along with Hoechst or Draq5. Sections were washed with PBS five times and mounted using Mowiol. […]

[2] = tested on: mouse ectocervical organoids; experiment: Mouse ectocervical organoid culture: formation and expansion; assay type: cell-based; conditions: for formation and expansion of squamous stratified organoids from single ectocervical stem cells: Wnt3a and RSPO1 together present in culture medium, mouse; for effect of presence or absence of Wnt pathway activators on murine organoid culture: murine ectocervical organoid medium
Method: Cervical cells were cultured in ADF medium (Invitrogen, #12634) supplemented with 12 mM HEPES (Invitrogen, #15630-056), 1% GlutaMax (Invitrogen, #35050-038), 1% B27 (Invitrogen, #17504-044), 1% N2 (Invitrogen, #17502048), 50 ng/ml mouse epidermal growth factor (EGF) (Invitrogen, #PMG8043), 100 ng/ml mouse noggin (Peprotech, #250-38-100), 100 ng/ml human fibroblast growth factor (FGF)-10 (Peprotech, #100-26-25), 1.25 mM N-acetyl-L-cysteine (Sigma, #A9165-5G), 10 mM nicotinamide, (Sigma, #N0636), 2 μM TGF-β R Kinase Inhibitor IV (Calbiochem, #616454), 10 μM ROCK inhibitor (Y-27632) (Sigma, #Y0503), 1% penicillin/streptomycin (Gibco, #15140-122) with or without 25% Wnt3A- and 25% R-spondin1-conditioned medium, as described in Willert et al (46) and Farin et al (47).
as §1, §2

Molecule | organoid growth (area of organoids) ([1]; grown in presence of γ-secretase inhibitor (Notch inhibition), FIG. 3H, 11D) | proliferation of organoids (Ki67) ([1]; presence of γ-secretase inhibitor, FIG. 3I) | differentiation and stratification of organoids ([1]; presence of γ-secretase inhibitor, immunolabelling CDH1, Ki67, p63, FIG. 3I) | formation and expansion of squamous stratified organoids from single ectocervical stem cells [1] | formation and expansion of squamous stratified organoids from single ectocervical stem cells [2] | effect of presence or absence of Wnt pathway activators on murine organoid culture [2]
C[C@H](NC(=O)Cc1cc(F)cc(F)c1)C(=O)N[C@@H]1C(=O)N(C)c2ccccc2-c2ccccc21 [DBZ] | reduced organoid growth | reduces proliferation | failed to differentiate and stratify; also recorded: prevents differentiation | – | – | –
Wnt3a | – | – | – | detrimental | detrimental | not to substantially effect
B1 | – | – | – | detrimental | detrimental | not to substantially effect
